Laboratory results published in ChEMBL document CHEMBL1201862, “PubChem BioAssay data set” (2004).
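Five concentrations, 48 hours, 96-well plates. GI50 marks 50% less growth.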 Activity calls are given as the source filed them. No stated cut-off is given here; in the data, active = GI50 up to about 1.1 µM and inactive = higher.

Key:
Assay in all cases: inhibition of tumour cell growth, NCI panel, 48 h
786-0 = system: 786-0
A498 = system: A498
A549 = system: A549
ACHN = system: ACHN
BT-549 = system: BT-549
CCRF-CEM = system: CCRF-CEM
COLO 205 = system: COLO 205
DU-145 = system: DU-145
EKVX = system: EKVX
HCC 2998 = system: HCC 2998
HCT-116 = system: HCT-116
HL-60 = system: HL-60
HOP-62 = system: HOP-62
HOP-92 = system: HOP-92
Hs-578T = system: Hs-578T
IGROV-1 = system: IGROV-1
K562 = system: K562
KM12 = system: KM12
M14 = system: M14
MDA-MB-435 = system: MDA-MB-435
MDA-N = system: MDA-N
MOLT-4 = system: MOLT-4
Malme-3M = system: Malme-3M
NCI-H226 = system: NCI-H226
NCI-H460 = system: NCI-H460
OVCAR-3 = system: OVCAR-3
OVCAR-4 = system: OVCAR-4
OVCAR-5 = system: OVCAR-5
OVCAR-8 = system: OVCAR-8
PC-3 = system: PC-3
RPMI-8226 = system: RPMI-8226
RXF 393 = system: RXF 393
SF-268 = system: SF-268
SF-295 = system: SF-295
SF-539 = system: SF-539
SK-MEL-28 = system: SK-MEL-28
SK-MEL-2 = system: SK-MEL-2
SK-MEL-5 = system: SK-MEL-5
SK-OV-3 = system: SK-OV-3
SN12C = system: SN12C
SNB-19 = system: SNB-19
SNB-75 = system: SNB-75
SR = system: SR
SW-620 = system: SW-620
T47D = system: T47D
U-251 = system: U-251
UACC-62 = system: UACC-62
UO-31 = system: UO-31
CAKI-1 = system: CAKI-1
HCT-15 = system: HCT-15
HT-29 = system: HT-29
LOX IMVI = system: LOX IMVI
MCF7 = system: MCF7
MDA-MB-231 = system: MDA-MB-231
NCI-H23 = system: NCI-H23
NCI-H522 = system: NCI-H522
NCI/ADR-RES = system: NCI/ADR-RES
TK-10 = system: TK-10
UACC-257 = system: UACC-257

Measured: GI50

O=C1CCCCC1=C(I)I
inactive: 786-0 16.5 µM | A498 20.5 µM | A549 37.8 µM | ACHN 17.6 µM | BT-549 13 µM | CCRF-CEM 19.1 µM | COLO 205 15.3 µM | DU-145 19.7 µM | EKVX 1.88 µM | HCC 2998 15.8 µM | HCT-116 16.6 µM | HL-60 4.49 µM | HOP-62 28.7 µM | HOP-92 15.4 µM | Hs-578T 63 µM | IGROV-1 15.5 µM | K562 16 µM | KM12 15.5 µM | M14 18 µM | MDA-MB-435 19.1 µM | MDA-N 16.9 µM | MOLT-4 17.9 µM | Malme-3M 14.3 µM | NCI-H226 19.7 µM | NCI-H460 21.4 µM | OVCAR-3 16.3 µM | OVCAR-4 12.1 µM | OVCAR-5 17.5 µM | OVCAR-8 33.9 µM | PC-3 16.5 µM | RPMI-8226 15.1 µM | RXF 393 16.2 µM | SF-268 19.4 µM | SF-295 24.8 µM | SF-539 19.5 µM | SK-MEL-28 17 µM | SK-MEL-2 16.7 µM | SK-MEL-5 17.9 µM | SK-OV-3 22.6 µM | SN12C 23.7 µM | SNB-19 12.1 µM | SNB-75 18.5 µM | SR 16.1 µM | SW-620 17.4 µM | T47D 15 µM | U-251 16.3 µM | UACC-62 17.1 µM | UO-31 16.7 µM

O=C(Nc1ccc(C(F)(F)F)cc1[N+](=O)[O-])c1cccnc1
2.91 µM: HCT-15
inactive: 786-0 10.7 µM | A498 18.3 µM | A549 6.75 µM | ACHN 7.01 µM | BT-549 7.06 µM | CAKI-1 2.81 µM | CCRF-CEM 4.85 µM | COLO 205 4.84 µM | DU-145 7.08 µM | EKVX 4.61 µM | HCC 2998 > 100 µM | HCT-116 7.24 µM | HL-60 3.72 µM | HOP-62 54.5 µM | HT-29 2.04 µM | Hs-578T 6.53 µM | IGROV-1 6.44 µM | K562 2.45 µM | KM12 2.57 µM | LOX IMVI 7.31 µM | M14 5.09 µM | MCF7 2.22 µM | MDA-MB-231 17.4 µM | MOLT-4 9.1 µM | Malme-3M 2.15 µM | NCI-H226 22.8 µM | NCI-H23 33.2 µM | NCI-H460 3.15 µM | NCI-H522 3.94 µM | NCI/ADR-RES 6.9 µM | OVCAR-3 2.41 µM | OVCAR-4 4.43 µM | OVCAR-5 73.5 µM | RPMI-8226 5.08 µM | SF-268 4.07 µM | SF-295 4.42 µM | SF-539 3.37 µM | SK-MEL-2 4.21 µM | SK-MEL-5 4.06 µM | SK-OV-3 6.35 µM | SN12C 7.83 µM | SNB-19 9.48 µM | SNB-75 3.72 µM | SW-620 3.14 µM | T47D > 100 µM | TK-10 5.46 µM | U-251 5 µM | UACC-257 5.71 µM | UACC-62 3.76 µM | UO-31 8.85 µM
active: MDA-MB-435 0.537 µM | SK-MEL-28 0.386 µM | SR 1.01 µM

COc1nc(N)nc2c1ncn2C1CC(O)C(CO)O1 (configuration not stated)
> 100 µM: HCT-15
inactive: 786-0 > 100 µM | A498 > 100 µM | A549 > 100 µM | ACHN > 100 µM | BT-549 > 100 µM | CAKI-1 > 100 µM | CCRF-CEM > 100 µM | COLO 205 > 100 µM | DU-145 > 100 µM | EKVX > 100 µM | HCT-116 > 100 µM | HL-60 > 100 µM | HOP-62 > 100 µM | HOP-92 > 100 µM | HT-29 > 100 µM | Hs-578T > 100 µM | IGROV-1 > 100 µM | K562 > 100 µM | KM12 > 100 µM | LOX IMVI > 100 µM | M14 > 100 µM | MCF7 > 100 µM | MDA-MB-231 > 100 µM | MDA-MB-435 > 100 µM | MOLT-4 > 100 µM | Malme-3M > 100 µM | NCI-H226 > 100 µM | NCI-H23 > 100 µM | NCI-H460 > 100 µM | NCI-H522 > 100 µM | NCI/ADR-RES > 100 µM | OVCAR-3 > 100 µM | OVCAR-4 > 100 µM | OVCAR-5 > 100 µM | OVCAR-8 > 100 µM | PC-3 > 100 µM | RPMI-8226 > 100 µM | RXF 393 > 100 µM | SF-268 > 100 µM | SF-295 > 100 µM | SF-539 > 100 µM | SK-MEL-28 > 100 µM | SK-MEL-2 > 100 µM | SK-MEL-5 > 100 µM | SK-OV-3 > 100 µM | SN12C > 100 µM | SNB-19 > 100 µM | SNB-75 > 100 µM | SR > 100 µM | SW-620 > 100 µM | T47D > 100 µM | TK-10 > 100 µM | U-251 > 100 µM | UACC-257 > 100 µM | UACC-62 > 100 µM | UO-31 > 100 µM

O=C1c2cccc3cc([N+](=O)[O-])cc(c23)C(=O)N1Nc1ccc([N+](=O)[O-])cc1[N+](=O)[O-]
14.5 µM: HCT-15
inactive: 786-0 13.6 µM | A498 18.4 µM | A549 16.3 µM | BT-549 19.4 µM | CAKI-1 15.1 µM | CCRF-CEM 1.85 µM | COLO 205 11.5 µM | DU-145 40.8 µM | EKVX 24.4 µM | HCC 2998 14 µM | HCT-116 10.9 µM | HL-60 4.23 µM | HOP-62 14 µM | HOP-92 17.9 µM | HT-29 12.9 µM | Hs-578T > 31.6 µM | IGROV-1 12.4 µM | K562 4.29 µM | KM12 14.6 µM | LOX IMVI 10.5 µM | M14 24.7 µM | MCF7 14.5 µM | MDA-MB-231 16.8 µM | MDA-MB-435 20.2 µM | MOLT-4 1.97 µM | Malme-3M 20.1 µM | NCI-H226 14.5 µM | NCI-H23 17.9 µM | NCI-H460 7.41 µM | NCI-H522 11.6 µM | NCI/ADR-RES 19.1 µM | OVCAR-3 22.3 µM | OVCAR-4 19.3 µM | OVCAR-5 > 70.5 µM | OVCAR-8 13 µM | PC-3 17.9 µM | RPMI-8226 12.8 µM | RXF 393 23.3 µM | SF-268 21.7 µM | SF-295 27 µM | SF-539 10.6 µM | SK-MEL-28 11.9 µM | SK-MEL-2 > 100 µM | SK-MEL-5 13 µM | SK-OV-3 > 31.6 µM | SN12C 22.8 µM | SNB-19 18.2 µM | SNB-75 18.2 µM | SR 2.64 µM | SW-620 10 µM | T47D 16.4 µM | TK-10 31.8 µM | U-251 13.3 µM | UACC-257 13.3 µM | UACC-62 13.6 µM | UO-31 12.1 µM
active: ACHN 0.557 µM

C=C(C)C[C@H](Sc1nc2ccccc2s1)[C@H](C)O
inactive: 786-0 40.8 µM | A498 27.2 µM | A549 50.5 µM | ACHN > 100 µM | BT-549 40.2 µM | CAKI-1 70.1 µM | COLO 205 35.5 µM | DU-145 88.1 µM | EKVX 32.4 µM | HCC 2998 59.2 µM | HCT-116 39.4 µM | HL-60 18.9 µM | HOP-62 > 100 µM | HOP-92 24.6 µM | HT-29 31.1 µM | Hs-578T 41.3 µM | IGROV-1 > 100 µM | K562 33.7 µM | KM12 41.2 µM | LOX IMVI 39.4 µM | M14 77.3 µM | MCF7 38.3 µM | MDA-MB-231 73.6 µM | MDA-MB-435 37.2 µM | MDA-N 37 µM | MOLT-4 16.4 µM | Malme-3M 25.6 µM | NCI-H226 22.5 µM | NCI-H23 31 µM | NCI-H460 45.3 µM | NCI-H522 23.8 µM | NCI/ADR-RES 33 µM | OVCAR-3 18.8 µM | OVCAR-4 70.1 µM | OVCAR-5 65.8 µM | OVCAR-8 34.3 µM | PC-3 22.6 µM | RPMI-8226 28.9 µM | RXF 393 48.3 µM | SF-268 42.3 µM | SF-295 39.5 µM | SF-539 41.8 µM | SK-MEL-28 41.4 µM | SK-MEL-2 23.1 µM | SK-MEL-5 18.1 µM | SN12C 45.4 µM | SNB-19 > 100 µM | SR 30.3 µM | SW-620 45.4 µM | TK-10 71.3 µM | U-251 37.5 µM | UACC-257 32.4 µM | UACC-62 52.7 µM | UO-31 69 µM
35.8 µM: HCT-15
